In the assay the test system is GUMC-403. Put plainly: viability at highest tested concentration (max response) relative to DMSO (% of DMSO control); higher = less cytotoxic. As to conditions: library / dose series: MIPE library, 11-point 1:3 dilution; top concentration 46.1 µM; 48 h. An outline of the steps: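 This value is viability at the highest tested concentration relative to vehicle control. GUMC-403 papilloma cells from a patient, grown by conditional reprogramming, were plated at 700/well in 1536-well plates and given 23 nL of compound by pin tool for 48 h. CellTiter-Glo luminescence on a ViewLux was normalised with vehicle wells at 100% and empty wells at 0%.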

Experimental findings from the supplement of paper PMC6723410 are described below.

For the compound `CCOC(=O)\C1=C(/C)N\C2=C(C1C3=CC=C(C=C3)C4=CC=CC=C4)\C(=O)CC(C)(C)C2` (stereo not given), the viability worked out at 82.6.

In turn, `CCc1cc(C(N)=S)ccn1` had a viability of 120.

In turn, `OC[C@H]1O[C@H](C[C@@H]1O)N2\C=C(F)/C(=O)NC2=O` yielded a viability of 65.7.

Turning to `O=C(N[C@H](CO)[C@H](O)c1ccc([N+](=O)[O-])cc1)C(Cl)Cl`, the viability was determined as 130.

The compound `Cc1nc(NC(=O)N2CCC[C@H]2C(N)=O)sc1-c1ccnc(C(C)(C)C(F)(F)F)c1` returned a viability of 42.4.

For the compound `Cc1cc(Nc2ncnc3ccc(-c4ccc(CNCC[S+](C)(=O)[O-])o4)cc23)ccc1Oc1ccn2ncnc2c1`, the viability was 99.8.

In the case of `CC(C)C[C@H](NC(=O)[C@@H](O)[C@H](N)Cc1ccccc1)C(=O)O`, the viability amounted to 102.

For the compound `Nc1ncnc2c1c(-c1cccc(OCc3ccccc3)c1)cn2C1CC(CN2CCC2)C1` (stereo not given), the viability is 98.4.

For `Cn1cc(/C=C/C(=O)c2cccc(F)c2)cc1/C=C/C(=O)NO`, the viability worked out at 103.

`C[C@@H](NCCCc1cccc(C(F)(F)F)c1)c1cccc2ccccc12`: the viability stood at 99.7.

In the case of `N[C@@H](Cc1cc(I)c(Oc2cc(I)c(O)c(I)c2)c(I)c1)C(=O)O`, the viability was determined as 123.

`C[C@]12CC[C@H]3[C@@H](C\C=C/4C[C@@H](O)CC[C@]34C)[C@@H]1CCC2=O` displayed a viability of 101.

Consider `CCNC(=O)C[C@@H]1\N=C(C2=CC=C(Cl)C=C2)/C3=C(C=CC(=C3)OC)[N]4C(=NN=C14)C`, for which the viability amounted to 79.8.

The compound `O=C1Nc2ccc(I)cc2/C1=C/c1cc(Br)c(O)c(Br)c1` registered a viability of 146.

The compound `Nc1c2c(nc3ccccc13)CCCC2` returned a viability of 107.

For `COc1ccc([S+](=O)([O-])Nc2cc(-c3c(O)ccc4ccccc34)c(O)c3ccccc23)cc1`, the viability is 117.

The compound `CC1(C)C(=O)N(CCN2CCC(C(=O)c3ccc(F)cc3)CC2)c2ccccc21` returned a viability of 71.3.

Regarding `CC1=C(C=CC=C1)N2\C(=N/C3=C(C(=CC=C3)C)C2=O)C[N]4N=CC5=C4N=CN=C5N`, the viability turned out to be 85.3.

As to `C[C@H](NC(=O)[C@@H](O)c1cc(F)cc(F)c1)C(=O)N[C@@H]1C(=O)N(C)c2ccccc2-c2ccccc21`, the viability was 99.

`CC(C)[N+]1(C)C2CCC1CC(OC(=O)C(CO)c1ccccc1)C2.O.[Br-]` (stereo not given): the viability is 109.

`CCCCCNC(=O)N1CCC(CN(Cc2ccc(Cl)cc2)Cc2ccc([N+](=O)[O-])s2)C1` (stereo not given): the viability was determined as 83.4.

`Nc1nccc(-c2ccc3noc(-c4ccc(Cl)cc4)c3c2)n1`: the viability worked out at 80.1.

With `O=C(O)CCNC(=O)c1ccc(/N=N/c2ccc(O)c(C(=O)O)c2)cc1`, the viability was 107.

`CC1=CC/2=C(C=C1C)N(C[C@@H](O)[C@@H](O)[C@@H](O)CO)C/3=N/C(=O)NC(=O)C3=N2` gave a viability of 123.

In turn, `COC1=C2OC(=O)\C=C/C2=CC3=C1OC=C3` gave a viability of 102.

`Cc1cc(Nc2cc(N3CCN(C)CC3)nc(Sc3ccc(NC(=O)C4CC4)cc3)n2)[nH]n1` showed a viability of 86.3.

Compound `O=[S+]([O-])(CCSSCC[S+](=O)([O-])[O][Na])[O][Na]` registered a viability of 119.

The compound `CC(=O)N[C@H]1[C@H](O[C@@H]2c3ccc(c(Cl)c3)Oc3cc4cc(c3O[C@@H]3O[C@H](CO)[C@@H](O)[C@H](O)[C@H]3NC(=O)CCCCCCCC(C)C)Oc3ccc(cc3Cl)C[C@H]3NC(=O)[C@H](N)c5ccc(O)c(c5)Oc5cc(O)cc(c5)[C@H](NC3=O)C(=O)N[C@H]4C(=O)N[C@H]3C(=O)N[C@@H]2C(=O)N[C@@H](C(=O)O)c2cc(O)cc(O[C@H]4O[C@H](CO)[C@@H](O)[C@H](O)[C@@H]4O)c2-c2cc3ccc2O)O[C@H](CO)[C@@H](O)[C@@H]1O` came in with a viability of 121.

Turning to `Nc1nc2ccc(OC(F)(F)F)cc2s1`, the viability was 86.9.

The compound `CCOC(=O)\C1=C\[C@@H](OC(CC)CC)[C@H](NC(C)=O)[C@@H](N)C1` returned a viability of 123.

`C[C@H]1[C@H](O)O[C@@H]2O[C@@]3(C)CC[C@H]4[C@H](C)CC[C@@H]1[C@@]24OO3` registered a viability of 90.6.

Compound `O=C(NCCCCN1CCOCC1)c1cc2ccccc2o1` displayed a viability of 106.

`CCCCCNC(=N)N/N=C/c1c[nH]c2ccc(OC)cc12` showed a viability of 69.6.

For `Cc1cccc(Nc2ccncc2[S+](=O)([O-])NC(=O)NC(C)C)c1`, the viability turned out to be 108.

Compound `COc1cc(-c2nn(C3CCC(N4CCN(C(C)=O)CC4)CC3)c3ncnc(N)c23)ccc1NC(=O)c1cc2ccccc2n1C` (stereo not given) returned a viability of 78.2.

`COC(=O)[C@@H](N)CCCNC(=N)N[N+](=O)[O-]` returned a viability of 107.

In turn, `CCCc1nc2c(C)cc(-c3nc4ccccc4n3C)cc2n1Cc1ccc(-c2ccccc2C(=O)O)cc1` showed a viability of 118.

Turning to `Clc1ccc(C2(c3ccc(-c4cn[nH]c4)cc3)CCNCC2)cc1`, the viability amounted to 59.9.

Compound `Cc1cc(-c2nnc3n2CCCCC3)c(C)n1-c1ccccc1` displayed a viability of 103.

Turning to `NC(=O)N1CCC(CC(=O)N2CCC([C@H]3c4ncc(Br)cc4CCc4cc(Cl)cc(Br)c43)CC2)CC1`, the viability is 101.

The compound `Cn1cc(-c2ccc3ncc(Cc4ccc5ncccc5c4)n3n2)cn1` returned a viability of 123.

As for `CC[C@H](CC#N)OC(=O)N[C@@H](C)c1cccc(NC(=O)Nc2ccc(-c3cnco3)c(OC)c2)c1`, the viability came out at 124.

In turn, `COc1ccc(C(=O)c2c(C)n(CCN3CCOCC3)c3ccccc23)cc1` returned a viability of 122.

In the case of `O=C(Nc1ncc(-c2cc(C(F)F)nn2-c2c(Cl)cccc2Cl)s1)C1CC1`, the viability is 84.9.

As for `CNC(=O)c1ccc(N2C(=S)N(c3ccc(C#N)c(C(F)(F)F)c3)C(=O)C2(C)C)cc1F`, the viability stood at 119.

Compound `O=c1cc(-c2ccc(O)c(O)c2)oc2cc(O)cc(O)c12` displayed a viability of 115.

`O=C(O)C1=NC(C(=O)O)CC(/C=C/N2c3cc(O)c(OC4OC(CO)C(O)C(O)C4O)cc3CC2C(=O)O)=C1` (stereo not given) displayed a viability of 135.

For the compound `N[S+](=O)([O-])c1cc(Cl)c(Cl)c([S+](N)(=O)[O-])c1`, the viability was 109.

In the case of `CC1(C)S[C@H]2[C@H](NC(=O)[C@@H](N)C3=CC=C(O)C=C3)C(=O)[N@]2[C@H]1C(O)=O`, the viability worked out at 124.

In the case of `CC(COc1ccccc1)N(CCCl)Cc1ccccc1` (stereo not given), the viability is 122.

The compound `CCOC(=O)N1CCN(/[N+]([O-])=N/Oc2cc(O/N=[N+](\[O-])N3CCN(C(=O)OCC)CC3)c([N+](=O)[O-])cc2[N+](=O)[O-])CC1` displayed a viability of 118.

Compound `CCN(CC)C(=O)C1=CC=C(C=C1)C/2=C/C3(CCNCC3)OC4=CC=CC(=C24)O` yielded a viability of 125.

`FC1=C(C=C(C\C2=N\NC(=O)C3=C2C=CC=C3)C=C1)C(=O)N4CCN(CC4)C(=O)C5CC5` yielded a viability of 82.6.

Take `COCCCC/C(=N\OCCN)c1ccc(C(F)(F)F)cc1`: the viability is 90.

As for `CC(C)(C)c1nc(-c2cccc(N[S+](=O)([O-])c3c(F)cccc3F)c2F)c(-c2ccnc(N)n2)s1`, the viability was found to be 109.

Compound `N[C@@H](Cc1ccc(N(CCCl)CCCl)cc1)C(=O)O` displayed a viability of 143.

Compound `ClC1=CC=C(CCCOC/2=N/NC(=O)C(=C2NCC3=CN=CC=C3)/Br)C=C1` had a viability of 83.2.

As for `COc1cc(OC2CCN(C)CC2)ccc1Nc1ncc2c(n1)n(C1CCCC1)c(=O)n2C`, the viability worked out at 60.4.

As to `Cc1ccc(NC(=O)Nc2cc(C(F)(F)F)ccc2F)cc1Nc1ccc2c(c1)NC(=O)/C2=C\c1ccc[nH]1`, the viability is 99.8.

Turning to `COC1=CC=C2[N](CCCN(C)C)C=C(C2=C1)C/3=C(/C(=O)NC3=O)C4=C[NH]C5=C4C=CC=C5`, the viability is 102.

Compound `NC(=O)OCC(COC(N)=O)c1ccccc1` displayed a viability of 110.

Regarding `O=C1NCCc2[nH]c(-c3ccncc3)cc21`, the viability was found to be 125.

For the compound `NCCS(=O)(=O)O`, the viability amounted to 123.

On to `CC(C)C[C@H](CN)CC(=O)O`, for which the viability amounted to 117.

`CN(C)CC/C=C1/c2ccccc2COc2ccc(CC(=O)O)cc21` came in with a viability of 100.

In turn, `CC(N[C@H]1C[C@@H]1c1ccccc1)c1ccc2c(c1)OCCO2` (stereo not given in full) returned a viability of 129.

The compound `N[S+](=O)([O-])c1ccc(Nc2nc(OCC3CCCCC3)c3[nH]cnc3n2)cc1` showed a viability of 46.9.

As to `CN(CC(=O)N(Cc1ccc(C2CCCCC2)cc1)c1ccc(C(=O)O)c(O)c1)[S+](=O)([O-])c1c(F)c(F)c(F)c(F)c1F`, the viability stood at 112.

`Cc1c(NC(=O)OC[C@@H]2COCCN2)cn2ncnc(Nc3ccc4c(cnn4Cc4cccc(F)c4)c3)c12` yielded a viability of 75.8.

With `CCOC(=O)C(C)(C)Oc1ccc(Cl)cc1`, the viability came out at 110.

`Oc1ccc([C@@H]2Oc3ccc(O)cc3[C@@H]3CCC[C@@H]32)cc1` yielded a viability of 96.3.

In turn, `C[C@@H](N)C1CC[C@@H](CC1)C(=O)NC2=CC=NC=C2` (stereo not given in full) registered a viability of 152.

Regarding `O=C(O[C@H]1C[C@H]2CC[C@@H](C1)[N+]21CCCC1)C(O)(c1ccccc1)c1ccccc1.[Cl-]`, the viability came to 140.

With `COc1cc2c(NC3CCN(C(C)C)CC3)nc(C3CCCCC3)nc2cc1OCCCN1CCCC1`, the viability was 82.3.

In the case of `N#C/C(=C1/Nc2ccccc2S1)c1ccnc(OCc2ccc(CN3CCOCC3)cc2)n1`, the viability is 91.3.
